# From US7326288B2, “Trisazo compound, ink composition, and colored object” (Nippon Kayaku Kabushiki Kaisha, priority 2003, dated 2008)
# Assay: Solubility Test (ammonia alkalinity, spot on filter paper)
# Type: physicochemical
# Details: aqueous buffer, thermodynamic from solid
# Method: Using ion exchanged water for a water, pH was adjusted at 9 to 9.5 with aqueous ammonia. They were treated with ultrasonic vessel at ordinary temperature. Toyo Filter Paper No. 131 was spotted with them, surface of which after dried was observed and solubility of which was determined. When a spot was uniform and insoluble material were not observed, it was judged to be soluble. When a spot was ununiform and insoluble material were observed, it was judged to be not soluble.
row,SMILES,solubility
1,Nc1c(N=Nc2ccc3c(O)c(N=Nc4cc(S(=O)(=O)O)ccc4S(=O)(=O)O)c(S(=O)(=O)O)cc3c2S(=O)(=O)O)cc(S(=O)(=O)O)c2cc(S(=O)(=O)O)c(N=Nc3ccc([N+](=O)[O-])cc3S(=O)(=O)O)c(O)c12 [Formula (2-10)],≥ 120 mg/mL

# Assay: solubility in water of the isolated trisazo compound
# Type: physicochemical
# Details: not given
row,SMILES,solubility
1,COc1ccc(N=Nc2c(S(=O)(=O)O)cc3c(S(=O)(=O)O)c(N=Nc4cc(S(=O)(=O)O)c5cc(S(=O)(=O)O)c(N=Nc6ccc([N+](=O)[O-])cc6S(=O)(=O)O)c(O)c5c4N)ccc3c2O)c(S(=O)(=O)O)c1 [compound 1],≥ 100 mg/mL
2,Nc1c(N=Nc2ccc3c(O)c(N=Nc4cc(S(=O)(=O)O)c5cc([N+](=O)[O-])cc(S(=O)(=O)O)c5c4)c(S(=O)(=O)O)cc3c2S(=O)(=O)O)cc(S(=O)(=O)O)c2cc(S(=O)(=O)O)c(N=Nc3ccc([N+](=O)[O-])cc3S(=O)(=O)O)c(O)c12 [compound 20],≥ 100 mg/mL
3,Nc1c(N=Nc2ccc3c(O)c(N=Nc4ccc(S(=O)(=O)O)cc4C(=O)O)c(S(=O)(=O)O)cc3c2S(=O)(=O)O)cc(S(=O)(=O)O)c2cc(S(=O)(=O)O)c(N=Nc3ccc([N+](=O)[O-])cc3S(=O)(=O)O)c(O)c12 [compound 2],≥ 100 mg/mL
4,Nc1c(N=Nc2ccc3c(O)c(N=Nc4cc(C(=O)O)cc(C(=O)O)c4)c(S(=O)(=O)O)cc3c2S(=O)(=O)O)cc(S(=O)(=O)O)c2cc(S(=O)(=O)O)c(N=Nc3ccc([N+](=O)[O-])cc3S(=O)(=O)O)c(O)c12 [compound 24],≥ 100 mg/mL
5,CNS(=O)(=O)c1ccc(N=Nc2c(S(=O)(=O)O)cc3c(S(=O)(=O)O)c(N=Nc4cc(S(=O)(=O)O)c5cc(S(=O)(=O)O)c(N=Nc6ccc([N+](=O)[O-])cc6S(=O)(=O)O)c(O)c5c4N)ccc3c2O)c(C(=O)O)c1 [compound 9],≥ 100 mg/mL
6,Nc1c(N=Nc2ccc3c(O)c(N=Nc4ccc([N+](=O)[O-])cc4S(=O)(=O)O)c(S(=O)(=O)O)cc3c2S(=O)(=O)O)cc(S(=O)(=O)O)c2cc(S(=O)(=O)O)c(N=Nc3ccc([N+](=O)[O-])cc3S(=O)(=O)O)c(O)c12 [compound 5],≥ 100 mg/mL
7,Nc1c(N=Nc2ccc3c(O)c(N=Nc4ccc(S(N)(=O)=O)cc4C(=O)O)c(S(=O)(=O)O)cc3c2S(=O)(=O)O)cc(S(=O)(=O)O)c2cc(S(=O)(=O)O)c(N=Nc3ccc([N+](=O)[O-])cc3S(=O)(=O)O)c(O)c12 [compound 4],≥ 100 mg/mL
8,Nc1c(N=Nc2ccc3c(O)c(N=Nc4cc(C(=O)O)ccc4C(=O)O)c(S(=O)(=O)O)cc3c2S(=O)(=O)O)cc(S(=O)(=O)O)c2cc(S(=O)(=O)O)c(N=Nc3ccc([N+](=O)[O-])cc3S(=O)(=O)O)c(O)c12 [compound 3],≥ 100 mg/mL
9,Nc1c(N=Nc2ccc3c(O)c(N=Nc4cc(C(=O)O)cc(C(=O)O)c4)c(S(=O)(=O)O)cc3c2S(=O)(=O)O)cc(S(=O)(=O)O)c2cc(S(=O)(=O)O)c(N=Nc3ccc(S(=O)(=O)O)cc3[N+](=O)[O-])c(O)c12 [compound 26],≥ 100 mg/mL
